In US4082760A, “Derivatives of 2H,3H-benzimidazo(1,2-b)oxazole” (Italchemi S.p.A. Istituto Chimico Farmaceutico, priority 1975, dated 1978):

What was measured:
Assay in all cases: MIC of antibiotics alone or mixed with equimolar compound, beta-lactamase-producing germs
Type in all cases: cell-based
Escherichia Coli R9 = settings: combinations: equimolar quantities
Text: (§1) The capacity of the products of general formula (I) to compete with the action of the beta-lactamase may be shown by comparing the minimum inhibiting concentrations (MIC) of some penicillins and cephalosporins when mixed with equimolar quantities of the products of general formula I and when not so mixed, in relation to pathogenic germs which produce beta-lactamase.

[1] = test system: Pseudomonas Aeruginosa R4; settings: combinations: equimolar quantities
Text: as §1

[2] = test system: Pseudomonas Aeruginosa R1; settings: combinations: equimolar quantities
Text: as §1

Protetts mirabilis = Protetts mirabilis (strain number not given); combinations: equimolar quantities
Text: as §1

Protetts mirabilis R2 = settings: combinations: equimolar quantities
Text: as §1

Protetts mirabilis R7 = settings: combinations: equimolar quantities
Text: as §1

Escherichia Coli R8 = settings: combinations: equimolar quantities
Text: as §1

Protetts Rettgeri R5 = settings: combinations: equimolar quantities
Text: as §1

Escherichia Coli R3 = settings: combinations: equimolar quantities
Text: as §1

| SMILES | MIC (Escherichia Coli R9) | MIC [1] | MIC [2] | MIC (Protetts mirabilis) | MIC (Protetts mirabilis R2) | MIC (Protetts mirabilis R7) | MIC (Escherichia Coli R8) | MIC (Protetts Rettgeri R5) | MIC (Escherichia Coli R3) |
| --- | --- | --- | --- | --- | --- | --- | --- | --- | --- |
| CC(=O)OCC1=C(C(=O)O)N2C(=O)[C@@H](NC(=O)Cc3cccs3)[C@H]2SC1 [Cephalothin] | 1000 γ/cc | 1000 γ/cc | – | – | – | – | – | – | – |
| O=C(Cc1cccs1)N[C@@H]1C(=O)N2C(C(=O)[O-])=C(C[n+]3ccccc3)CS[C@H]12 [Cephaloridine] | – | – | 1000 γ/cc | – | – | – | – | – | – |
| CC1(C)S[C@@H]2[C@H](NC(=O)[C@H](N)c3ccccc3)C(=O)N2[C@H]1C(=O)O [Ampicillin] | 500 γ/cc | 1000 γ/cc | – | 1000 γ/cc | 1000 γ/cc | 1000 γ/cc | 500 γ/cc | 1000 γ/cc | 1000 γ/cc |
